Where a SMILES comes first, the peptide text is derived from it. Where no end group is shown, it is not given here.
Legend:
GST = GST (Schistosoma japonicum, UniProt P08515); assay: Surface plasmon resonance control with GST as analyte; type: binding; conditions: SPR, GST as the analyte
Method: (§1) Kinetics of the SNCG-ANK interaction were determined. […] Sensograms were deconvoluted globally, using a simultaneous fit for both association (ka, M^−1s^−1) and dissociation (kd, s^−1).
(§2) The binding interaction between the ANK peptide and GST-SNCG was examined in real time using a BIACORE 3000 biosensor system (Biacore Inc., NJ). Because of the relatively large amount required in this experiment, GST-SNCG, which expresses at least 2 times better than SNCG, was used. […] The changes in the refractive index at the sensor chip surface with respect to time are scaled in resonance units (RU). For proteins, every 1000 RU corresponds to a surface mass change of ˜1 ng/mm^2. All experiments were performed at 25° C. using research grade carboxymethylated dextran matrix (CM5) sensor chips (Biacore Inc.). […] Prior to all analyses the GST-SNCG and ANK peptide preparations were dialyzed against the running buffer to minimize bulk effects. Blank analyte injections (running buffer only) were subtracted from the specific binding isotherms to further minimize instrument noise.

GST-SNCG = molecular target: T1, GST-SNCG (Homo sapiens, UniProt O76070); assay: Surface plasmon resonance, immobilized ANK peptide with GST-SNCG analyte; type: binding; conditions: global fit, two-phase reaction (conformation change) model, 25° C.
T1 construct: The SNCG coding region was amplified from the human cDNA clone; made in house; host or cells: Escherichia coli BL21 (DE3)
Method: as §1
as §2, with “Blank analyte injections (running buffer only) were subtracted from the specific binding isotherms to further minimize instrument noise.” left out
In all cases the analyte binding measurements were performed using running buffer 2 (running buffer 1 plus 0.1% P20 surfactant). […] Data was analyzed using BIAevaluation 3.1 software (Biacore Inc.). The data was analyzed globally, using a simultaneous fit for both association (ka, M^−1s^−1) and dissociation (kd, s^−1). The KD (M) value was calculated as kd/ka.

SNCG-BubR1 interaction = molecular target: T2, SNCG-BubR1 interaction (Homo sapiens, UniProt O76070); assay: Co-immunoprecipitation of SNCG and myc-BubR1 with or without EGFP-ANK in COS7 cells; type: cell-based; conditions: COS7 cells expressing BubR1, SNCG and EGFP-ANK
T2 construct: expressed in transfected cells; host or cells: COS7

MCF7-SNCG and T47D cells = assay: Mitotic index by anti-phospho-H3 immunostaining (microscopy) after paclitaxel; type: cell-based; conditions: over-expressing EGFP-ANK in MCF7-SNCG and T47D cells
Method: (§3) FIG. 7A through D show expression of EGFP-ANK disrupting the SNCG-mediated inhibition of mitotic checkpoint function as measured by microscopy and flow cytometry. The bar graphs show the expression of EGFP-ANK disrupting the SNCG-mediated inhibition of mitotic checkpoint function, using (FIG. 7A) DAPI and (FIG. 7B) anti-phospho-H^3 staining. For graphs of FIGS. 7A and 7B, the cells treated with 0.5 μM paclitaxel for 18 hours or untreated control cells were fixed with 4% paraformaldehyde for 20 minutes at room temperature. In both cases, the cells were then stained with 1 μg/ml of DAPI or 2 μg/ml anti-phospho-H3 primary and Texas Red goat anti-rabbit secondary antibodies (Invitrogen). Green fluorescent cells were identified for positive transfected cells. For each sample, 200-300 cells randomly chosen from 5 different views under a Nikon fluorescent microscope were scored for interphase, mitotic, or apoptotic based upon nuclei morphology. The data shown were derived from three separate transfections (p<0.01). […]
(§4) Two days after transfection, cells were exposed to paclitaxel for 18 hours and numbers of mitotic arrested and apoptotic cells were counted after DAPI staining. […] These cells were also probed with rabbit polyclonal anti-phospho-H^3 and the mitotic index was calculated according to the proportion of the number of H^3 stained EGFP positive cells to total EGFP positive cells (FIG. 7B). […]

MCF7-Neo cells = assay: Mitotic index and apoptosis by DAPI staining after paclitaxel; type: cell-based; conditions: neo cells expressing EGFP-ANK versus pEGFP, paclitaxel 18 hours
Method: as §3, §4

SNCG = SNCG (Homo sapiens, UniProt O76070); assay: Co-immunoprecipitation of EGFP-ANK with anti-SNCG antibody; type: binding; parameters: expressed in transfected cells; host or cells: MCF7-SNCG (MCF7 stably expressing SNCG)
Sequence of SNCG (O76070 whole entry): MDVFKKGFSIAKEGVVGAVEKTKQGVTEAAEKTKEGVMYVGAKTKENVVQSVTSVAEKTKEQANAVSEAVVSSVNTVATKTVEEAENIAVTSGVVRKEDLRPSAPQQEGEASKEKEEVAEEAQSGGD

T1 sequence (O76070 whole entry): as above
Sequence of GST (P08515 whole entry): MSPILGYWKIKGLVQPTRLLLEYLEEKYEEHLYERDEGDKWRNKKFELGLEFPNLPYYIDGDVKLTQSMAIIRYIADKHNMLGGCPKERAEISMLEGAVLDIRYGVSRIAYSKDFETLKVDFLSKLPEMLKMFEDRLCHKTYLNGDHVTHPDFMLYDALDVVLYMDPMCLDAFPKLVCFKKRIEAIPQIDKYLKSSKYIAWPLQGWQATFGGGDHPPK
T2 sequence (O76070 whole entry): as the sequence (O76070 whole entry) above

myc-BubR1 signal in anti-SNCG IP complex (SNCG-BubR1 interaction) | co-precipitation with SNCG in anti-SNCG IP complexes (SNCG; MCF7-SNCG cells transfected with pEGFP-ANK, western blot with anti-GFP) | presence in anti-SNCG IP complexes (SNCG; MCF7-neo cells (SNCG negative control)) | Molecule | binding of GST analyte to immobilized ANK peptide (GST) | kd1 (GST-SNCG) [s⁻¹] | kd2 (GST-SNCG) [s⁻¹] | sensitivity to paclitaxel by anti-phospho-H3 mitotic index (MCF7-SNCG and T47D cells) | mitotic index (MCF7-Neo cells) | percentage of apoptotic cells (MCF7-Neo cells)
– | – | – | CC[C@H](C)[C@H](NC(=O)[C@H](CS)NC(=O)CNC(=O)[C@H](CC(C)C)NC(=O)[C@H](Cc1c[nH]cn1)NC(=O)CNC(=O)[C@H](Cc1c[nH]cn1)NC(=O)[C@H](CCC(N)=O)NC(=O)[C@H](CO)NC(=O)[C@H](C)NC(=O)[C@@H](NC(=O)[C@H](Cc1c[nH]cn1)NC(=O)[C@H](CC(C)C)NC(=O)[C@H](C)NC(=O)[C@H](CO)NC(=O)[C@H](CC(N)=O)NC(=O)CNC(=O)[C@H](CCCCN)NC(C)=O)C(C)C)C(=O)N[C@@H](CCC(N)=O)C(=O)N[C@H](C(=O)N[C@@H](CC(C)C)C(=O)N[C@H](C(=O)N[C@@H](CCCNC(=N)N)C(=O)N[C@@H](Cc1ccc(O)cc1)C(=O)NCC(=O)N[C@@H](C)C(=O)N[C@@H](CC(N)=O)C(=O)N[C@H](C(=O)N[C@H](C(=O)N[C@@H](CCSC)C(=O)N[C@@H](CCC(N)=O)C(=O)N[C@@H](CC(N)=O)C(=O)N[C@@H](Cc1c[nH]cn1)C(=O)NCC(N)=O)[C@@H](C)O)C(C)C)C(C)C)[C@@H](C)O [ANK peptide] (Ac-KGNSALHVASQHGHLGCIQTLVRYGANVTMQNHG-NH2) | No binding | 0.014 | 0.000802 | – | – | –
not detected | co-precipitate with SNCG | not in the IP complexes | EGFP-ANK: ANK peptide expressed as a fusion protein with its amino-terminal linked to EGFP protein, approximately 37 kDa ({EGFP}-KGNSALHVASQHGHLGCIQTLVRYGANVTMQNHG) | – | – | – | increases in sensitivity to paclitaxel | did not significantly alter | did not significantly alter
